Source: patent US20250120999A1 (priority 2022, published 2025)
“And” between values parts separate entries of the source, which are not always exact repeats. Equal entries are not always repeated. Marks after values point to notes of the source that are not given here.

Key:
MPXV A29 [1] = format: binding, monkeypox virus (MPXV)
MPXV A29 protein = format: binding, monkeypox virus (MPXV)
MPXV A35 protein [2] = format: binding, monkeypox virus (MPXV)
SARS-CoV-2 wild-type = conditions: cited from earlier work
[3] = tested on: SARS-CoV-2 Delta (B.1.617.2); conditions: cited from earlier work
MPXV A35 protein [4] = format: binding, monkeypox virus (MPXV); remark: listed apart in the source
MPXV A29 [5] = format: binding, monkeypox virus (MPXV); remark: listed apart in the source
MPXV L1R = format: binding, monkeypox virus (MPXV)

Row | Substance | inhibition of MPXV A29 binding to heparin surface (in words) (MPXV A29 [1]) | Normalized A29 protein binding (%) (MPXV A29 protein) | ability to inhibit A29-surface-immobilized heparin interaction (in words) (MPXV A29 protein) | inhibition of MPXV A29 binding to surface-immobilized heparin (MPXV A29 protein) | Normalized A35 protein binding (%) (MPXV A35 protein [2]) | ability to inhibit A35-surface-immobilized heparin interaction (in words) (MPXV A35 protein [2]) | inhibition of MPXV A35 binding to surface-immobilized heparin (MPXV A35 protein [2]) | also measured
1 | 2-O-desulfated IdoA heparin [2-desulfated heparin] | weaker inhibition |  |  |  |  |  |  | 
2 | 6-O-desulfated heparin [6-desulfated heparin] | weaker inhibition |  |  |  |  |  |  | 
3 | N-desulfated heparin | weaker inhibition |  |  |  |  |  |  | 
4 | [→3)-α-Fuc2,4S-(1→3)-α-Fuc2S-(1→3)-α-Fuc2S-(1→3)-α-Fuc-(1→]n [IbSF] |  | 5.0** % | showed the ability to inhibit | 95% and 92.4% | 24.3* % | showed the ability to inhibit | 75.8% and 77.4% | inhibitory activity against SARS-CoV-2 wild-type (in words) (SARS-CoV-2 wild-type): showed inhibitory activity; inhibitory activity against SARS-CoV-2 Delta (in words) [3]: showed inhibitory activity
5 | [→3)-α-Fuc2,4S-(1→3)-α-Fuc-(1→3)-α-Fuc2S-(1→3)-α-Fuc2S-(1→]n [HfSF] |  | 8.5** % | showed the ability to inhibit |  | 23.9* % | showed the ability to inhibit |  | 
6 | [→3)-α-Fuc2,4S-(1→3)-αFuc2S-(1→3)-α-Fuc2S-(1→3)-α-Fuc4S-(1→]n [LvSF] |  | 23.6* % | showed the ability to inhibit | 76.4% | 16.9* % | showed the ability to inhibit | 83.1% | 
7 | [→3)-α-GalNAcX(1→4)-β-GlcA-[(3→1)Y]-(1→]n, where X=4S (80%), 6S (10%), or non-sulfated (10%), and Y=−Fuc2,4S (40%), αFuc2,4S-(1→4)-α-Fuc (30%), or α-Fuc4S (30%) [PpFucCS] |  | 13.0* % | showed the ability to inhibit | 87% | 19.0* % | showed the ability to inhibit | 89% | 
8 | [→3)-β-GalNAc4,6S-(1→4)-β-GlcA-[(3→1)Y]-(1→]n, where Y=αFuc2,4S (45%), α-Fuc3,4S (35%), or α-Fuc4S (20%) [HfFucCS] |  | 13.9* % | showed the ability to inhibit |  | 23.0* % | showed the ability to inhibit |  | 
9 | [→3)-β-GalNAc4,6S-(1→4)β-GlcA-[(3→1)Y]-(1→]n, where Y=α-Fuc2,4S (96%) or α-Fuc4S (4%) [IbFucCS] |  | 7.6* % | showed the ability to inhibit | 91.5% and 86.1% | 20.1* % | showed the ability to inhibit | 79.9% and 77% | inhibitory activity against SARS-CoV-2 wild-type (in words) (SARS-CoV-2 wild-type): showed inhibitory activity; inhibitory activity against SARS-CoV-2 Delta (in words) [3]: showed inhibitory activity
10 | chondroitin sulfate [CS] |  |  |  |  |  |  |  | binding of GAG chip to MPXV A35 protein (in words) (MPXV A35 protein [4]): neither CS nor DS showed binding
11 | chondroitin-4,6-sulfate [CSE] |  |  |  |  |  |  |  | ka (MPXV A29 [5]): 4858 M⁻¹ s⁻¹; kd (MPXV A29 [5]): 1.5 × 10^−3 (±4.7 × 10^−5) s^−1
12 | chondroitin-4-sulfate [CSA] |  |  |  |  |  |  |  | ka (MPXV A29 [5]): 3730 M⁻¹ s⁻¹; kd (MPXV A29 [5]): 3.2 × 10^−3 (±5.4 × 10^−5) s^−1
13 | dermatan sulfate [DS] |  |  |  |  |  |  |  | ka (MPXV A29 [5]): 4487 M⁻¹ s⁻¹; kd (MPXV A29 [5]): 2.8 × 10^−3 (±2.6 × 10^−5) s^−1; binding of GAG chip to MPXV A35 protein (in words) (MPXV A35 protein [4]): neither CS nor DS showed binding
14 | heparin |  | 43.3* % |  | 60% | 27.7* % |  | 72% | kd (MPXV A29 [5]): 7.1 × 10^−3 (±5.0 × 10^−5) s^−1; Kd (MPXV A29 [5]; read-out: KD heparin-A29 interaction): 250 nM; binding between MPXV L1R protein and heparin (in words) (MPXV L1R): essentially no binding; ka (MPXV A35 protein [4]): 1.8 × 10^3 M^−1S^−1; Kd (MPXV A35 protein [4]; read-out: KD heparin-A35 interaction): 220 nM; inhibition of MPXV A29 binding to surface-immobilized heparin (MPXV A29 [1]): 30%
15 | mucopolysaccharide polysulfate [MPS] | strongest inhibition |  |  |  |  |  |  | inhibition of MPXV A29 binding to surface-immobilized heparin (MPXV A29 [1]): 69%
16 | pentosan polysulfate [PPS] | strongest inhibition |  |  |  |  |  |  | inhibition of MPXV A29 binding to surface-immobilized heparin (MPXV A29 [1]): 62%
